The source of these data is ChEMBL document CHEMBL1130634, “Quinazolines: combined type 3 and 4 phosphodiesterase inhibitors” (Bioorg Med Chem Lett, 1998).

By IC50 is commonly meant the concentration that inhibits the measured activity by half.

Each structure is given as a SMILES string.

In test [1] the target is 3',5'-cyclic-AMP phosphodiesterase 4D (Homo sapiens, UniProt Q08499). In words: Evaluated for its ability to inhibit PDE4D.
The target in test [2] is T1, 3',5'-cyclic-AMP phosphodiesterase 4B (Rattus norvegicus, UniProt P14646).
T1 sequence (P14646 whole entry): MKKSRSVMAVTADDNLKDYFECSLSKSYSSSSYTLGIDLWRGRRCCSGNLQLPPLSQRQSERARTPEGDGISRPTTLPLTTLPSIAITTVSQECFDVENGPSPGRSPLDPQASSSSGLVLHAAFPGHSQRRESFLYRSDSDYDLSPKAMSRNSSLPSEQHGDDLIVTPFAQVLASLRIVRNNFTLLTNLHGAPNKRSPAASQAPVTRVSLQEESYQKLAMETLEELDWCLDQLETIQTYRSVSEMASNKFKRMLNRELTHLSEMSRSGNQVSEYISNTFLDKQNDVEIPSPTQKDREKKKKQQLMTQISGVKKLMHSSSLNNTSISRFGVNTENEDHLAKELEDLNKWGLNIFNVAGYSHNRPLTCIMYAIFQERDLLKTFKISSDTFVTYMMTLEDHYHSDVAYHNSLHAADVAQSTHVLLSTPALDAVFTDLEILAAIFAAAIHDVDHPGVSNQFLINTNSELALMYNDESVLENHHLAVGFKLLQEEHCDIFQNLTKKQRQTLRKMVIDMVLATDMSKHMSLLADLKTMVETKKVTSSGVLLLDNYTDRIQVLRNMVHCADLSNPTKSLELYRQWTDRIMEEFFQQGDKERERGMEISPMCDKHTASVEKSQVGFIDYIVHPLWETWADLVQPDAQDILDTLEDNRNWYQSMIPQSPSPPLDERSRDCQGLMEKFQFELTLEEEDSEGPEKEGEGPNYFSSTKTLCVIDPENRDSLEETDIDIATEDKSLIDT
In words: Evaluated for its ability to inhibit PDE4B.

Test [3] concerns the target T2, 3',5'-cyclic-AMP phosphodiesterase 4A (Homo sapiens, UniProt P27815). In words: Evaluated for its ability to inhibit PDE4A.
Test [4] addresses T2, 3',5'-cyclic-AMP phosphodiesterase 4A. In words: Inhibition of PDE4A.
In the next test the target is Phosphodiesterase 3 (Homo sapiens, UniProt Q14432+Q13370). In words: Evaluated for its ability to inhibit PDE3. The class given is protein assay.
Test [5] addresses T3, Phosphodiesterase 4 (Rattus norvegicus, UniProt P14270+P14646+P14644+P54748). In words: Inhibition of [3H]-rolipram binding to membrane-bound PDE4.
In test [6] the target is T3, Phosphodiesterase 4. In words: Evaluated for the inhibition of [3H]rolipram binding to membrane-bound PDE4.

T2 sequence (P27815 whole entry): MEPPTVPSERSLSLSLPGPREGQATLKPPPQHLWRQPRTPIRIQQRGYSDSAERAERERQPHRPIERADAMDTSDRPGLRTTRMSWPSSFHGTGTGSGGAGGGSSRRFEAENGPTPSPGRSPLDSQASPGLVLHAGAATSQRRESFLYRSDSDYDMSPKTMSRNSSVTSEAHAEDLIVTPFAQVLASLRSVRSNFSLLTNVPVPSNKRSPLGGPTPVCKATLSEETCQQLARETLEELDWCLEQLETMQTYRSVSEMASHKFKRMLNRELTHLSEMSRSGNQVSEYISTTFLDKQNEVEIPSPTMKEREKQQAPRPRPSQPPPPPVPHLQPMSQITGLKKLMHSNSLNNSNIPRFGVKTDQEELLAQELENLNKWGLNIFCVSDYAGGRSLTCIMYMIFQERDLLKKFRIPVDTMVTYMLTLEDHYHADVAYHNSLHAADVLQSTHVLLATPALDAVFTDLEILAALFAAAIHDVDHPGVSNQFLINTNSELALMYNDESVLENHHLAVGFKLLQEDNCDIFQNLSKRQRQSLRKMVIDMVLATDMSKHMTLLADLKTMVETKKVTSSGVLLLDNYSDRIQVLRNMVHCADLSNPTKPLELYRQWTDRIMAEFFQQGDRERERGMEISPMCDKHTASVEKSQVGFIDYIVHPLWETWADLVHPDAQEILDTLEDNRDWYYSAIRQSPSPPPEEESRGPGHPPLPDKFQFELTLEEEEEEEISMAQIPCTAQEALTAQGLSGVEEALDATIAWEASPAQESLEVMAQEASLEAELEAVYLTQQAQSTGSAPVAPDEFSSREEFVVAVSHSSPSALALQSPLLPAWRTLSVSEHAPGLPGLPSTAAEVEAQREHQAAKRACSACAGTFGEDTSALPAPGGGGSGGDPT
3',5'-cyclic-AMP phosphodiesterase 4D, sequence (Q08499 whole entry): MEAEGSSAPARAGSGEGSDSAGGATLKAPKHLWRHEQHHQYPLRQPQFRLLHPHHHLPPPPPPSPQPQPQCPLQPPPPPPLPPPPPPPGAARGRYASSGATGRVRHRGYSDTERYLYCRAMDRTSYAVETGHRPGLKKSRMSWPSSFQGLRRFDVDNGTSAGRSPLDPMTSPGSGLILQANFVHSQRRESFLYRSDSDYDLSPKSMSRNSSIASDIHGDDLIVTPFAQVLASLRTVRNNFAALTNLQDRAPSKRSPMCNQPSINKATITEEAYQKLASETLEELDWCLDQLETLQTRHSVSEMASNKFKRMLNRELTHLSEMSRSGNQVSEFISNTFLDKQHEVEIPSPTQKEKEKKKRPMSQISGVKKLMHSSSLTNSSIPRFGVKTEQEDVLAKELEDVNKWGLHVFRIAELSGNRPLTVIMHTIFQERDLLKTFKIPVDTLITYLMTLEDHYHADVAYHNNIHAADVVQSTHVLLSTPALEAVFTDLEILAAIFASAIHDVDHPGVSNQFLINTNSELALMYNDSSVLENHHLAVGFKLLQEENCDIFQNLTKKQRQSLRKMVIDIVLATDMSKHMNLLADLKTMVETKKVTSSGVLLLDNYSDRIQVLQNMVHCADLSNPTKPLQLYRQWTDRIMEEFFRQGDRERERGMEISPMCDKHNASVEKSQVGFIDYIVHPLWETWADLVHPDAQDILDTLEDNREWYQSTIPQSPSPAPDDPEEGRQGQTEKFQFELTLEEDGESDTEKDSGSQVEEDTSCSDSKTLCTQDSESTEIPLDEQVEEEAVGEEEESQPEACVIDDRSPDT

For the molecule `CCc1nc(-c2cc(OCC3CC3)cc(OCC3CC3)c2)c2ccc(OCCO)cc2n1`, the figures for the IC50 in test [1], in test [2] and in test [3] were 850 nM, 660 nM and 630 nM, respectively.

On to `CCc1nc(-c2cc(OCC3CC3)cc(OCC3CC3)c2)c2cc(OCCO)c(OCCO)cc2n1`, for which the IC50 in test [1], in test [2] and in test [3] was above 100000 nM in each case.

For `COc1cc2nc(C)nc(-c3cc(O)cc(O)c3)c2cc1OC`, the results for the IC50 in test [1], in test [2] and in test [4] were 2000 nM, 14000 nM and 23500 nM, respectively.

For the molecule `CCCCc1nc(-c2cc(OCC3CC3)cc(OCC3CC3)c2)c2cc(OC)c(OCCO)cc2n1`, the IC50 at Phosphodiesterase 3 stood at 720 nM; in test [1], 300 nM; in test [2], 300 nM; at Phosphodiesterase 4 [5] it was 50 nM; in test [3], 1300 nM.

For the molecule `COc1nc(-c2cc(OCC3CC3)cc(OCC3CC3)c2)c2cc(OC)c(OCCO)cc2n1`, the IC50 at Phosphodiesterase 3 is 390 nM; in test [1], 140 nM; in test [2], 110 nM; in test [3], 130 nM; at Phosphodiesterase 4 [6], 210 nM.

As for `COc1cc2nc(C)nc(-c3cc(OC(C)C)cc(OC(C)C)c3)c2cc1OC`, the results for the IC50 in test [1], in test [2] and in test [3] were 1200 nM, 1300 nM and 2300 nM, respectively.

On to `COc1cc2c(-c3cc(OCC4CC4)cc(OCC4CC4)c3)nc(-c3cc(OCC4CC4)cc(OCC4CC4)c3)nc2cc1OCCO`, for which the IC50 against Phosphodiesterase 3 amounted to 7800 nM; in test [1], 8500 nM; in test [2], 22000 nM; in test [3], 14000 nM.

In the case of `CCc1nc(-c2cc(OCC3CC3)cc(OCC3CC3)c2)c2cc(OC)c(O)cc2n1`, the IC50 was found to be 650 nM in test [1], 2400 nM in test [2] and 3300 nM in test [3].

In the case of `COc1cc2c(-c3cc(OCC4CC4)cc(OCC4CC4)c3)nc(-c3cccs3)nc2cc1OCCO`, the IC50 amounted to 3000 nM in test [1], 1300 nM in test [2] and 5400 nM in test [3].

In the case of `COc1cc2nc(C)nc(-c3cc(OCC4CC4)cc(OCC4CC4)c3)c2cc1OC`, the IC50 in test [1] amounted to 800 nM; in test [2], 650 nM; in test [3], 900 nM.

Consider `COc1cc2c(-c3cc(OCC4CC4)cc(OCC4CC4)c3)nc(OCCCO)nc2cc1OCCO`, for which the IC50 on Phosphodiesterase 3 was found to be 310 nM; in test [1], 130 nM; in test [2], 200 nM; in test [3], 250 nM; at Phosphodiesterase 4 [6] it was 145 nM.

As to `CCOC(=O)COc1cc2nc(C)nc(-c3cc(OCC4CC4)cc(OCC4CC4)c3)c2cc1OC`, the IC50 against Phosphodiesterase 3 was 700 nM; in test [1] it was above 100000 nM; in test [2] it was 61000 nM; in test [3], above 10000 nM.

As to `CCOc1nc(-c2cc(OCC3CC3)cc(OCC3CC3)c2)c2cc(OC)c(OCCO)cc2n1`, the IC50 on Phosphodiesterase 3 was determined as 340 nM; in test [1] it was 60 nM; in test [2] it was 70 nM; in test [3], 85 nM; at Phosphodiesterase 4 [6] it was 43 nM.

For the molecule `COc1cc2c(-c3cc(OCC4CC4)cc(OCC4CC4)c3)nc(NCCCO)nc2cc1OCCO`, the IC50 against Phosphodiesterase 3 was 430 nM; in test [1] it was 230 nM; in test [2], 340 nM; in test [3], 500 nM; on Phosphodiesterase 4 [6], 200 nM.

For `CCc1nc(-c2cc(OCC3CC3)cc(OCC3CC3)c2)c2cc(OC)c(OCCO)cc2n1`, the IC50 against Phosphodiesterase 3 was 16 nM; in test [1] it was 22 nM; in test [2], 25 nM; in test [3], 30 nM; at Phosphodiesterase 4 [6], 15 nM.

On to `CCc1nc(-c2cc(OCC3CC3)cc(OCC3CC3)c2)c2cc(OC)c(OCC3CC3)cc2n1`, for which the IC50 in test [1] turned out to be 540 nM; in test [2], 600 nM; in test [3], 2900 nM.

For the molecule `COc1cc2c(-c3cc(OCC4CC4)cc(OCC4CC4)c3)nc(OCCO)nc2cc1OCCO`, the IC50 at Phosphodiesterase 3 came out at 430 nM; in test [1] it was 90 nM; in test [2], 80 nM; in test [3], 70 nM.

Turning to `COc1cc2c(-c3cc(OCC4CC4)cc(OCC4CC4)c3)nc(N3CCOCC3)nc2cc1OCCO`, the IC50 in test [1] was 1200 nM; in test [2], 2500 nM; in test [3], 3300 nM.

As for `CCSc1nc(-c2cc(OCC3CC3)cc(OCC3CC3)c2)c2cc(OC)c(OCCO)cc2n1`, the IC50 in test [1] stood at 700 nM; in test [2] it was 440 nM; in test [3], 540 nM.

For `CCc1nc(-c2cc(OCC3CC3)cc(OCC3CC3)c2)c2cc(OC)c(OCc3ccccc3)cc2n1`, the IC50 in test [1], in test [2] and in test [3] was above 100000 nM each time.
